The record followed here is ChEMBL document CHEMBL1127261, “3-Substituted 6-butyl-1,2-dihydropyridin-2-ones: A new series of potent nonpeptide angiotensin II receptor antagonists” (Bioorg Med Chem Lett, 1994).

By IC50 is commonly meant the point on the concentration scale where inhibition reaches its midpoint. A high value points to lower potency. As a reminder, the inhibition in vivo is the share of the control response that was lost under treatment.

For assay [1], the target named is T1, Angiotensin II receptor (AT-1) type-1 (Rattus norvegicus, UniProt P29089+P25095).
T1 sequence (P29089 whole entry): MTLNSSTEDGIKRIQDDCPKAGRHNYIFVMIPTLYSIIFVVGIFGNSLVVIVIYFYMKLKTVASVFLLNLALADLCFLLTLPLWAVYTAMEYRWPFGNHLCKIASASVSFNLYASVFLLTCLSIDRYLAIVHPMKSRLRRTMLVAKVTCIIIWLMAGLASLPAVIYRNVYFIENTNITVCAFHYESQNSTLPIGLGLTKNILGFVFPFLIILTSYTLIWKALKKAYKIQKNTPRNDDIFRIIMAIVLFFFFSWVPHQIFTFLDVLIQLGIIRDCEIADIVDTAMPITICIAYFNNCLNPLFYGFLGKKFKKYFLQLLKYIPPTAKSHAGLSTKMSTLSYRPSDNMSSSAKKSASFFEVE
T1 sequence (P25095 whole entry): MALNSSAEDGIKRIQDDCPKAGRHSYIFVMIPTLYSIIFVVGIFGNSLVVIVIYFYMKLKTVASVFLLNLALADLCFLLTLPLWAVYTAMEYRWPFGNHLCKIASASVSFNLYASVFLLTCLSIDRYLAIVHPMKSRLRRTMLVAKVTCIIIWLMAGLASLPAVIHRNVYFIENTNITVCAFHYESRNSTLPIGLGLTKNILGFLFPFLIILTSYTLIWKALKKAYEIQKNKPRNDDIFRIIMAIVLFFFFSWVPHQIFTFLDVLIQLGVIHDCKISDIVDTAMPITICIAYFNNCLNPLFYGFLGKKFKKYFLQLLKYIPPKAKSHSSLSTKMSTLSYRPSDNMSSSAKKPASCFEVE
Put plainly: In vitro binding affinity to angiotensin II receptor, type 1 in rat adrenal cortex preparation. Type of assay: tissue-based.

The species named for another assay is Oryctolagus cuniculus. Put plainly: In vitro functional antagonism in isolated rabbit aortic rings precontracted by AII. To be noted: Aorta.
In a further assay the test system is Rattus norvegicus. Put plainly: In vivo percent inhibition of AII induced increase in diastolic blood pressure in pithed rats at a dose of 3 mg/kg, i.d. Type of assay: functional. The following applies: Artery, route intraduodenal.

Structures are written as SMILES.

Consider `CCCCc1ccc(CNC(=O)Cc2ccccc2)c(=O)n1Cc1ccc(-c2ccccc2-c2nn[nH]n2)cc1`, for which the concentration for half-maximal inhibition (IC50) in assay [1] came to 4.1 nM.

As for `CCCCNC(=O)NCc1ccc(CCCC)n(Cc2ccc(-c3ccccc3-c3nn[nH]n3)cc2)c1=O`, the IC50 is 9 nM in assay [1] and 10 nM in the assay listed under Oryctolagus cuniculus. In the assay with Rattus norvegicus, this compound yielded an inhibition in vivo at 3 mg/kg of 10.3%.

On to `CCCCc1ccc(CNCc2ccccc2)c(=O)n1Cc1ccc(-c2ccccc2-c2nn[nH]n2)cc1`, for which the IC50 in assay [1] turned out to be 1.5 nM; in the assay filed under Oryctolagus cuniculus, 1 nM. Further, the inhibition in vivo at 3 mg/kg in the assay on Rattus norvegicus is 12.4%.

Take `CCCCc1ccc(CN)c(=O)n1Cc1ccc(-c2ccccc2-c2nn[nH]n2)cc1`: the results for the IC50 (in assay [1]; in the assay filed under Oryctolagus cuniculus) were 19 nM and 20 nM, respectively. In the assay on Rattus norvegicus, this compound showed an inhibition in vivo at 3 mg/kg of 2.8%.

Take `CCCCc1ccc(CNC(=O)CCC)c(=O)n1Cc1ccc(-c2ccccc2-c2nn[nH]n2)cc1`: the IC50 in assay [1] was found to be 5.7 nM.

On to `CCCCc1ccc(CNS(=O)(=O)c2ccc(C)cc2)c(=O)n1Cc1ccc(-c2ccccc2-c2nn[nH]n2)cc1`, for which the 50% inhibitory concentration (IC50) stood at 3.3 nM in assay [1] and 9 nM in the assay filed under Oryctolagus cuniculus.

For the compound `CCCCc1ccc(CNS(=O)(=O)c2ccccc2)c(=O)n1Cc1ccc(-c2ccccc2-c2nn[nH]n2)cc1`, the 50% inhibitory concentration (IC50) in assay [1] is 4.1 nM; in the assay filed under Oryctolagus cuniculus, 7 nM. In addition, in the assay with Rattus norvegicus, 3 mg/kg produced 25.2% inhibition in vivo.

Take `CCCCc1ccc(CN(Cc2ccccc2)S(C)(=O)=O)c(=O)n1Cc1ccc(-c2ccccc2-c2nn[nH]n2)cc1`: the IC50 amounted to 3.8 nM in assay [1] and 2 nM in the assay filed under Oryctolagus cuniculus. This compound also displayed an inhibition in vivo at 3 mg/kg in the assay with Rattus norvegicus of 41.2%.

As for `CCCCc1ccc(CN(Cc2ccccc2)S(=O)(=O)c2ccc(C)cc2)c(=O)n1Cc1ccc(-c2ccccc2-c2nn[nH]n2)cc1`, the concentration for half-maximal inhibition (IC50) in assay [1] worked out at 16.5 nM; in the assay listed under Oryctolagus cuniculus, 60 nM. Also, in the assay on Rattus norvegicus, testing at 3 mg/kg gave an inhibition in vivo of 36.6%.

The compound `CCCCc1ccc(C#N)c(=O)n1Cc1ccc(-c2ccccc2-c2nn[nH]n2)cc1` yielded an IC50 in assay [1] of 18 nM.

For `CCCCc1ccc(C)c(=O)n1Cc1ccc(-c2ccccc2-c2nn[nH]n2)cc1`, the values for the IC50 (in assay [1]; in the assay listed under Oryctolagus cuniculus) were 6.1 nM and 7 nM, respectively.

Turning to `CCCCc1ccc(CN(C)S(=O)(=O)c2ccccc2)c(=O)n1Cc1ccc(-c2ccccc2-c2nn[nH]n2)cc1`, the IC50 in assay [1] is 4.2 nM; in the assay listed under Oryctolagus cuniculus it was 2 nM. The same compound displayed an inhibition in vivo at 3 mg/kg with Rattus norvegicus of 68.7%.

For the compound `CCCCc1ccc(CNC(=O)N(C)C)c(=O)n1Cc1ccc(-c2ccccc2-c2nn[nH]n2)cc1`, the IC50 is 2.9 nM in assay [1] and 2 nM in the assay listed under Oryctolagus cuniculus. Also, the inhibition in vivo at 3 mg/kg in the assay with Rattus norvegicus was determined as 28%.

In the case of `CCCCc1cccc(=O)n1Cc1ccc(-c2ccccc2-c2nn[nH]n2)cc1`, the results for the concentration for half-maximal inhibition (IC50) (in assay [1]; in the assay listed under Oryctolagus cuniculus) were 18 nM and 4 nM, respectively.

For `CCCCc1ccc(CN(C)S(=O)(=O)c2ccc(C)cc2)c(=O)n1Cc1ccc(-c2ccccc2-c2nn[nH]n2)cc1`, the concentration for half-maximal inhibition (IC50) in assay [1] worked out at 4.2 nM; in the assay filed under Oryctolagus cuniculus, 8 nM.

On to `CCCCc1ccc(CN(CC)S(C)(=O)=O)c(=O)n1Cc1ccc(-c2ccccc2-c2nn[nH]n2)cc1`, for which the IC50 in assay [1] amounted to 3.5 nM; in the assay filed under Oryctolagus cuniculus, 2 nM.

As to `CCCCc1ccc(CNC(=O)NC2CCCCC2)c(=O)n1Cc1ccc(-c2ccccc2-c2nn[nH]n2)cc1`, the results for the IC50 (in assay [1]; in the assay listed under Oryctolagus cuniculus) were 21 nM and 90 nM, respectively. Further, in the assay on Rattus norvegicus, the inhibition in vivo at 3 mg/kg was found to be 0%.

As for `CCCCc1ccc(CNC(=O)OC(C)(C)C)c(=O)n1Cc1ccc(-c2ccccc2-c2nn[nH]n2)cc1`, the results for the IC50 (in assay [1]; in the assay listed under Oryctolagus cuniculus) were 6 nM and 10 nM, respectively. This compound also registered an inhibition in vivo at 3 mg/kg in the assay with Rattus norvegicus of 68.9%.

Turning to `CCCCc1ccc(CN(Cc2ccccc2)C(=O)OC(C)(C)C)c(=O)n1Cc1ccc(-c2ccccc2-c2nn[nH]n2)cc1`, the 50% inhibitory concentration (IC50) in assay [1] was 20 nM.

Turning to `CCCCc1ccc(CN(Cc2ccccc2)C(C)=O)c(=O)n1Cc1ccc(-c2ccccc2-c2nn[nH]n2)cc1`, the IC50 in assay [1] was 2.8 nM; in the assay filed under Oryctolagus cuniculus, 1 nM. The same compound had an inhibition in vivo at 3 mg/kg with Rattus norvegicus of 76.3%.

On to `CCCCc1ccc(CNS(C)(=O)=O)c(=O)n1Cc1ccc(-c2ccccc2-c2nn[nH]n2)cc1`, for which the IC50 in assay [1] worked out at 2.2 nM; in the assay filed under Oryctolagus cuniculus, 2 nM. This compound also yielded an inhibition in vivo at 3 mg/kg in the assay with Rattus norvegicus of 54.8%.

On to `CCCCc1ccc(CN(C(C)C)S(C)(=O)=O)c(=O)n1Cc1ccc(-c2ccccc2-c2nn[nH]n2)cc1`, for which the 50% inhibitory concentration (IC50) in assay [1] was 1.9 nM; in the assay filed under Oryctolagus cuniculus it was 0.9 nM. The compound further gave an inhibition in vivo at 3 mg/kg with Rattus norvegicus of 82.7%.

For `CCCCc1ccc(CN(Cc2ccccc2)S(=O)(=O)c2ccccc2)c(=O)n1Cc1ccc(-c2ccccc2-c2nn[nH]n2)cc1`, the IC50 stood at 12 nM in assay [1] and 20 nM in the assay filed under Oryctolagus cuniculus. This compound also yielded an inhibition in vivo at 3 mg/kg in the assay with Rattus norvegicus of 75.7%.

As to `CCCCc1ccc(CNC(C)=O)c(=O)n1Cc1ccc(-c2ccccc2-c2nn[nH]n2)cc1`, the half-maximal inhibitory concentration (IC50) in assay [1] worked out at 3.8 nM; in the assay listed under Oryctolagus cuniculus it was 3 nM. This compound also returned an inhibition in vivo at 3 mg/kg in the assay on Rattus norvegicus of 8.6%.

For the compound `CCCCc1ccc(CNC(=O)N(CC)CC)c(=O)n1Cc1ccc(-c2ccccc2-c2nn[nH]n2)cc1`, the half-inhibitory concentration (IC50) in assay [1] came to 6.5 nM.

With `CCCCc1ccc(CN(C)S(C)(=O)=O)c(=O)n1Cc1ccc(-c2ccccc2-c2nn[nH]n2)cc1`, the 50% inhibitory concentration (IC50) stood at 1.2 nM in assay [1] and 0.2 nM in the assay listed under Oryctolagus cuniculus. For the same compound, the inhibition in vivo at 3 mg/kg in the assay with Rattus norvegicus came out at 83.4%.

`CCCCc1nc(Cl)c(CO)n1Cc1ccc(-c2ccccc2-c2nn[nH]n2)cc1`: the IC50 in the assay listed under Oryctolagus cuniculus turned out to be 3 nM. The inhibition in vivo at 3 mg/kg in the assay on Rattus norvegicus came out at 73.6%.

In turn, `CCCCc1ccc(CN(C)C(=O)N(C)C)c(=O)n1Cc1ccc(-c2ccccc2-c2nn[nH]n2)cc1` yielded a half-maximal inhibitory concentration (IC50) in assay [1] of 13 nM.

`CCCCc1ccc(CNS(=O)(=O)C(F)(F)F)c(=O)n1Cc1ccc(-c2ccccc2-c2nn[nH]n2)cc1`: in assay [1], the IC50 was 22 nM.

For the compound `CCCCc1ccc(CNC(=O)Nc2ccccc2)c(=O)n1Cc1ccc(-c2ccccc2-c2nn[nH]n2)cc1`, the half-inhibitory concentration (IC50) in assay [1] amounted to 18 nM; in the assay listed under Oryctolagus cuniculus, 30 nM. Also, in the assay on Rattus norvegicus, the inhibition in vivo at 3 mg/kg turned out to be 0%.
